Data on four compounds can be found in ChEMBL document CHEMBL1799992, “Substituent effect on the preferred DNA binding mode and affinity of a homologous series of naphthalene diimides” (Bioorg Med Chem Lett, 2011).

Experiment [1] relates to Nucleic Acid. Put plainly: Binding affinity to calf thymus DNA assessed as high affinity binding constant in MES00 buffer at pH 6.3 by isothermal titration calorimetry. The experiment is classed as nucleic-acid assay. As to conditions: Bos taurus. On the technique in general: ITC needs no label: the signal is the heat of the interaction.
The test system of experiment [2] is Nucleic Acid. Put plainly: Selectivity ratio of binding constant K for AT-rich DNA to binding constant K for GC-rich DNA. Type of experiment: nucleic-acid assay.
Experiment [3] has as its system Nucleic Acid. Put plainly: Binding affinity to 20 mer GC-rich DNA in MES00 buffer at pH 6.3 by isothermal titration calorimetry. Type of experiment: nucleic-acid assay.
In experiment [4] the test system is Nucleic Acid. Put plainly: Binding affinity to 20 mer AT-rich DNA in MES00 buffer at pH 6.3 by isothermal titration calorimetry. Type of experiment: nucleic-acid assay.
The test system of experiment [5] is Nucleic Acid. Put plainly: Binding affinity to calf thymus DNA assessed as low affinity binding constant in MES00 buffer at pH 6.3 by isothermal titration calorimetry. Type of experiment: nucleic-acid assay. As to conditions: Bos taurus.
In experiment [6] the test system is Nucleic Acid. In words: Displacement of ethidium bromide from calf thymus DNA assessed as fluorescence intensity per microL of compound at 7 x 10^-5 M after 3 mins. Type of experiment: nucleic-acid assay. As to conditions: Bos taurus.
Experiment [7] addresses T1, DNA topoisomerase 1 (Homo sapiens) (UniProt P11387).
T1 sequence (whole entry): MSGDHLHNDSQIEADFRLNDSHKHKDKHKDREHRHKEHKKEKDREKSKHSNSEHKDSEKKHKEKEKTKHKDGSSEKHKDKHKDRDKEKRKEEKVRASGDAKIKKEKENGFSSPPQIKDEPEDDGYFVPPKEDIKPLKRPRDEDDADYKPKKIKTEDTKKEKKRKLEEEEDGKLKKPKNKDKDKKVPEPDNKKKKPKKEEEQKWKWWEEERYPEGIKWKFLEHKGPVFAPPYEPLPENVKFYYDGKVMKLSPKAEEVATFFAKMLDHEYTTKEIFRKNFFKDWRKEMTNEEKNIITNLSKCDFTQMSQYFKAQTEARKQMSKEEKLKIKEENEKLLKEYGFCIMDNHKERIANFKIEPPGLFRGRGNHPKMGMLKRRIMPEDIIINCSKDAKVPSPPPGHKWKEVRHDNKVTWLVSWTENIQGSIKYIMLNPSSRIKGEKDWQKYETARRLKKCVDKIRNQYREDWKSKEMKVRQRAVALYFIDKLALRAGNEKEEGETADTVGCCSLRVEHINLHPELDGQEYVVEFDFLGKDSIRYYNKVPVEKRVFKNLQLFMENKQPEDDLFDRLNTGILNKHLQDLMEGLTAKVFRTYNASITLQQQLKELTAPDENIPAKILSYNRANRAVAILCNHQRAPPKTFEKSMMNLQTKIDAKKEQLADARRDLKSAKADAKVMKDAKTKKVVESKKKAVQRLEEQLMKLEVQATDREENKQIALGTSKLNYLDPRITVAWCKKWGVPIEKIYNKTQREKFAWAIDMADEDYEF
Put plainly: Inhibition of human topoisomerase 1 assessed as minimum concentration required for complete re-supercoiling of pUC19 DNA after 1 hr using ethidium bromide staining by agarose gel electrophoresis.

Experiment [8] has as its system Nucleic Acid. Put plainly: Binding affinity to calf thymus DNA assessed in MES00 buffer at pH 6.3 by isothermal titration calorimetry. Type of experiment: nucleic-acid assay. The following applies: Bos taurus.

As for `CCCC[N+](C)(CCCC)CN1C(=O)c2ccc3c4c(ccc(c24)C1=O)C(=O)N(C[N+](C)(CCCC)CCCC)C3=O`, the K is 78 ×10⁶ /M in the experiment on Nucleic Acid [1], 0.38 ×10⁶ /M in the experiment on Nucleic Acid [3], 1.38 ×10⁶ /M in the experiment on Nucleic Acid [4] and 3.9 ×10⁶ /M in the experiment with Nucleic Acid [5]. For the same compound, in the experiment on Nucleic Acid [2], the Ratio amounted to 3.6. Moreover, in the experiment with Nucleic Acid [6], the Flu intensity is 358. For the same compound, the Activity in experiment [7] is over 6.7 µM.
Regarding `CC[N+](C)(CC)CN1C(=O)c2ccc3c4c(ccc(c24)C1=O)C(=O)N(C[N+](C)(CC)CC)C3=O`, the K in the experiment on Nucleic Acid [1] stood at 31 ×10⁶ /M; in the experiment with Nucleic Acid [3], 0.37 ×10⁶ /M; with Nucleic Acid [4] it was 0.85 ×10⁶ /M; in the experiment on Nucleic Acid [5], 3.6 ×10⁶ /M. For the same compound, in the experiment with Nucleic Acid [2], the Ratio stood at 2.3. Also, the Activity in experiment [7] came out at 5.5 µM.
`CCC[N+](C)(CCC)CN1C(=O)c2ccc3c4c(ccc(c24)C1=O)C(=O)N(C[N+](C)(CCC)CCC)C3=O`: the K in the experiment on Nucleic Acid [1] came out at 43 ×10⁶ /M; in the experiment on Nucleic Acid [3], 0.24 ×10⁶ /M; in the experiment with Nucleic Acid [4], 0.73 ×10⁶ /M; in the experiment on Nucleic Acid [5], 3 ×10⁶ /M. For the same compound, the Ratio with Nucleic Acid [2] was determined as 3. For the same compound, the Activity in experiment [7] worked out at 6.7 µM.
With `C[N+](C)(C)CN1C(=O)c2ccc3c4c(ccc(c24)C1=O)C(=O)N(C[N+](C)(C)C)C3=O`, the K with Nucleic Acid [3] amounted to 1.17 ×10⁶ /M; in the experiment on Nucleic Acid [4], 1.11 ×10⁶ /M; in the experiment with Nucleic Acid [8] it was 15 ×10⁶ /M. For the same compound, in the experiment with Nucleic Acid [6], the Flu intensity turned out to be 400. In addition, the Activity in experiment [7] was found to be 3.5 µM.
